Consider 3 compounds from PMC9851725 (International Journal of Biological Macromolecules, 2023).

Data set [1] deals with T1, SARS-CoV-2 PLpro (Severe acute respiratory syndrome coronavirus 2, UniProt P0DTD1). In kind it is binding.
Data set [2] concerns SARS-CoV-2. It is filed as in vivo, Syrian hamster. The conditions noted are these: for reduction in virus RNA levels in throat swabs vs untreated control: daily day 0–4, day 5.
The conditions of data set [3]: 15, 30, 45 mg/kg oral; observation period of five days.
The test system of data set [4] is SARS-CoV-2. It is filed as cell-based.
The next data set concerns the target PLpro (Severe acute respiratory syndrome coronavirus 2, UniProt P0DTD1). Description: Differential scanning fluorimetry. The note with it: PLpro 2.5 μM; ATA 0.78 μM to 200 μM; 20 °C to 90 °C.
Data set [5] deals with T1, SARS-CoV-2 PLpro. It is filed as biochemical.
The test system of data set [6] is SARS-CoV-2. The note with it: Vero-E6 cells ref 9; cited from earlier work.
The mark [7] stands for this setting: PLpro pre-incubated with GRL0617 for 2 h.
Setting [8] is: binding to PLpro, no pre-incubation.

Where two headings read alike, the source gives them in different places.

Take `O=C(O)C1=CC(=C(c2ccc(O)c(C(=O)O)c2)c2ccc(O)c(C(=O)O)c2)C=CC1=O` [ATA, aurintricarboxylic acid]: the results for the “N (stoichiometry)” value at SARS-CoV-2 PLpro [1] (setting [7]) and at SARS-CoV-2 PLpro [1] (setting [8]) were 1.30 and 1.31, respectively. The “ΔH (enthalpy change)” value on SARS-CoV-2 PLpro [1] (setting [7]) was -2.403 kcal/mol; at SARS-CoV-2 PLpro [1] (setting [8]) it was -2.469 kcal/mol. In addition, the “ΔS (entropy change)” value at SARS-CoV-2 PLpro [1] (setting [7]) was determined as 14.6 cal/mol/deg; on SARS-CoV-2 PLpro [1] (setting [8]), 14.3 cal/mol/deg. Moreover, the “enthalpy (ΔH)” value on SARS-CoV-2 PLpro [1] (one-site binding model, no pre-incubation) is -2.47 kcal/mol. In the data set on SARS-CoV-2 [2] (15, 30, 45 mg/kg oral, day 5), the “reduction of virus RNA levels in lung tissues vs untreated control” value is on record as “no significant reduction”. The “lung pathology vs untreated” value in the data set with SARS-CoV-2 [2] (15, 30, 45 mg/kg oral, day 5, H&E) was “no noticeable difference”. Also, the “reduction in virus RNA levels in throat swabs vs untreated control” value was 0.4 log in the data set on SARS-CoV-2 [2] (group A, 15 mg/kg oral); 0.4 log with SARS-CoV-2 [2] (group B, 30 mg/kg oral); 1 log in the data set with SARS-CoV-2 [2] (group C, 45 mg/kg oral). For the same compound, the “weight loss, gross complications, or mortality” value in data set [3] was “no significant weight loss”. Further, the “% reduction” value turned out to be 3.1% with SARS-CoV-2 [4] (25 μM ATA); 84.2% in the data set on SARS-CoV-2 [4] (75 μM ATA); 91.7% in the data set with SARS-CoV-2 [4] (100 μM ATA); 92.2% in the data set on SARS-CoV-2 [4] (200 μM ATA); 97.1% in the data set on SARS-CoV-2 [4] (300 μM ATA); 99.0% with SARS-CoV-2 [4] (400 μM ATA). For the same compound, the “Viral RNA copy no./ml” value is recorded as 2404 with SARS-CoV-2 [4] (25 μM ATA); 393 in the data set with SARS-CoV-2 [4] (75 μM ATA); 207 with SARS-CoV-2 [4] (100 μM ATA); 193 in the data set with SARS-CoV-2 [4] (200 μM ATA); 71 in the data set on SARS-CoV-2 [4] (300 μM ATA); 25 in the data set with SARS-CoV-2 [4] (400 μM ATA). Further, on PLpro, the “effect on PLpro structure (SYPRO Orange dye fluorescence)” value is recorded as “stabilizes the protein structure”. The type of inhibition result on SARS-CoV-2 PLpro [5] (best fit of kinetic data among four models (AICc)) is “non-competitive”. The “inhibition of PLpro enzymatic activity in library screening” value against SARS-CoV-2 PLpro [5] (compounds up to 300 μM, 200 nM enzyme, 20 μM substrate, 5 mM DTT) is reported as “significant inhibition”.

On to `O=C1C=CC(=C(c2ccc(O)cc2)c2ccc(O)cc2)C=C1` [aurin, reference compound], for which, at SARS-CoV-2 PLpro [5], the “inhibition of PLpro” value is given as “didn't inhibit”.

On to `Nc1nc2nc[nH]c2c(=S)[nH]1` [6-TG, 6-thioguanine], for which, in the data set with SARS-CoV-2 [6], the EC50 is approximately 2000 nM.
